The nature of data set [1]: stability in dimethylsulfoxide. Format: physicochemical.
Another data set addresses T1, PLC-δ PH domain (Homo sapiens, UniProt P51178).
T1 construct: 100 nM PLC-δ PH domain
T1 sequence (P51178 21-130 limits assumed): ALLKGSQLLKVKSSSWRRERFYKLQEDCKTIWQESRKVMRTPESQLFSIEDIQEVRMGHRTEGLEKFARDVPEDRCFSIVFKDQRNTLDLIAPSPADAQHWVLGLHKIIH
Nature of the data set: PH domain translocation assay, GFP-fused PLC-δ PH domain. Format: cell-based. As for the experimental part: Cells were transfected with the corresponding GFP-fusion vectors, serum starved overnight, and incubated with 100 μM PITs or PIT-1is for 2 hr, followed by stimulation with 100 ng/ml PDGF or 250 ng/ml PMA for 5 min. The translocation was analyzed using fluorescent microscope and was quantitated by counting the number of cells with translocated PH domains in five random fields.
In contrast, no inhibitory effect was observed on the cellular localization of PLC-δ PH domain, which is specific for PIP2.

In data set [2] the test system is U87MG cells (R130M PTEN vs wt PTEN). Nature of the data set: Sytox cell death assay, U87MG expressing wild-type or R130M inactive PTEN. It is filed as cell-based, human. The conditions noted are these: 25, 50, 100 μM, 48 hr. The protocol: After treatment with 25, 50, or 100 μM PIT-1 for 48 hr, cell death was analyzed using Sytox cell death assay.
Based on the critical role of PIP3-dependent Akt signaling in the regulation of cell survival, the effect of PIT-1 on the cancer cell viability was tested. Cancer cells were seeded into 96-well plates (white plates for ATP assay; black plates for fluorescent assay; clear plates for MTS assay) at the density of 5-10×10^3 cells per well in 100 μl of the appropriate media. Compounds were added at a series of concentrations and incubated for different times. For the ATP assay, a luminescence-based commercial kit (CellTiter-Glo, Promega, Madison, Wis.) was used. Thirty microliters of cell lysis/ATP detection reagent was added to each well, mixed for 10 min at room temperature, and the luminescence was measured using a Wallac Victor 3 plate reader (Perkin-Elmer, Wellesley, Mass.). […] Twenty microliters of the combined MTS/PMS solution was added into each well, incubated for 4 hr at 37° C., and the absorbance at 490 nm was measured using a Wallac Victor 3 plate reader. For the Sytox cell death assay, measuring loss of plasma membrane integrity, cells were incubated with 1 μM Sytox Green reagent (Molecular Probes, Eugene, Oreg.) for 30 min at 37° C. and the fluorescence intensity was measured using Wallac Victor 3 plate reader with excitation at 485 nm and emission at 545 nm. […]

A further data set concerns LC3-II. Nature of the data set: autophagic marker LC3-II in U87MG cells. It is filed as cell-based, human. The text has this: Changes in cell metabolism have emerged in recent years as an important component of PI3K/PIP3/Akt signaling, contributing to the regulation of cell viability and transformation by the PI3K/Akt pathway. Datta S R et al. (1999) Genes Dev 13:2905-27; Elstrom R L et al. (2004) Cancer Res 64:3892-9. Therefore, the possibility that PIT-1 may cause dysregulation of energy homeostasis and induction of the metabolic stress in cancer cells, which may contribute to the PIT-induced cell death, was investigated. […] Hardie D G (2007) Nat Rev Mol Cell Biol 8:774-85. […] Mathew R et al. (2007) Nat Rev Cancer 7:961-7. […] Takeuchi H et al. (2005) Cancer Res 65:3336-46.

The next data set addresses Bcl-xL (Homo sapiens, UniProt Q07817). Nature of the data set: NMR HSQC specificity control, Bcl-xL. It is filed as binding.
The next data set has as its system U87MG cells. Nature of the data set: long-term colony formation by U87MG cells. Format: cell-based, human.
Data set [3] has as its system differentiated HL-60 cells. Nature of the data set: fMLP-stimulated HL-60 cell polarization. Format: cell-based. Conditions: 100 μM, 2 hr. The protocol: In another set of experiments, the ability of PITs to inhibit fMLP-stimulated HL-60 cell polarization was examined. Differentiated HL-60 cells were treated with PIT-1, PIT-2, PIT-1i-1, or PIT-1i-2, each at 100 μM for 2 hr, followed by stimulation with 100 nM fMLP for 3 min. Actin was stained and analyzed using fluorescent microscopy. The number of the polarized cells was counted in five random fields.

Another data set has as its system caspase-3. Nature of the data set: Western blot of caspase-3 cleavage and PARP processing. Format: cell-based. The text has this:
Since PI3K/PIP3/Akt signaling plays a critical role in the inhibition of apoptosis (Datta S R et al. (1999) Genes Dev 13:2905-27), the possibility that PITs induce apoptosis was examined. […] Proapoptotic Bcl-2 family members Bax and Bak are important mediators of apoptosis. Wei M C et al. (2001) Science 292:727-30. […] Non-apoptotic mechanisms of cell death may also play some additional, albeit less important, role in PIT-induced killing, as some cell death was still observed in Bax/Bak-deficient cells and in the presence of zVAD.fmk.
(In general: In western blotting, separated proteins are transferred to a membrane and probed.)

In data set [4] the test system is PI3K/PDK1/Akt signaling pathway. Nature of the data set: PI3K/PDK1/Akt signaling in HUVEC, Western blotting. It is filed as cell-based, human. The conditions noted are these: 50, 100, 200 μM, 2 hr, bFGF. The protocol:
Endothelial cell migration plays a central role in tumor angiogenesis. Avraamides C J et al. (2008) Nat Rev Cancer 8:604-17. […] First, human umbilical vein endothelial cells (HUVEC) cells were serum starved overnight, and treated with different concentrations of PIT-1 (50, 100 and 200 μM) for 2 hr, followed by stimulation with 10 ng/ml bFGF for 15 min, and the PIP3-dependent phosphorylation events were evaluated by Western blotting.

In data set [5] the target is T2, R86A mutant of the Akt PH domain (Homo sapiens, UniProt P31749, R86A).
T2 construct: Human Akt PH domain a.a; 1-123; His6 (N); made in house; host or cells: E. coli BL21(DE3)
T2 sequence (P31749 1-123 R86A): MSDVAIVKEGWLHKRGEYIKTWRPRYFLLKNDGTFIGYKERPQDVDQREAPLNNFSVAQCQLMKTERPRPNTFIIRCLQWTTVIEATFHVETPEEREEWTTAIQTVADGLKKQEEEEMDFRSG
Nature of the data set: NMR HSQC, R86A mutant of the PH domain. It is filed as binding.

Each structure is given as a SMILES string.

Bcl-xL, sequence (Q07817 whole entry, species assumed): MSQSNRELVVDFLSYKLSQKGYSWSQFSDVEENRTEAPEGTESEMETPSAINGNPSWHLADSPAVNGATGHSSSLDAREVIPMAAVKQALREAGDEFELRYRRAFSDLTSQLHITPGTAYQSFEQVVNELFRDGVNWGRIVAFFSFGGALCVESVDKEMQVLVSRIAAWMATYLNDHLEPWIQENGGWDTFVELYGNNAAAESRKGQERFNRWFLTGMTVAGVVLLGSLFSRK

Consider `O=C1NC(=S)S/C1=C\c1cc(O)c([N+](=O)[O-])cc1Cc1ccccc1` [PIT-2], for which, in [1], the “stability in dimethylsulfoxide (DMSO)” value is listed as “limited stability”.

Turning to `O=C(NC(=S)Nc1cc([N+](=O)[O-])cc(Cl)c1O)c1ccccc1` [PIT-1], on PLC-δ PH domain, the “effect on PLC-δ PH domain localization / PIP2/PH domain binding in cells” value was “does not disrupt”. In data set [2], the “toxicity in U87MG cells lacking PTEN activity compared to wt PTEN-expressing cells” value is “more pronounced”. Also, in the data set with LC3-II, the “expression of autophagic marker LC3-II” value is “prominently increased”. Moreover, at Bcl-xL, the “changes in HSQC spectrum of Bcl-xL” value is listed as “did not elicit any changes”. Besides, in the data set with U87MG cells, the “long-term colony formation by U87MG cells” value was “suppressed long-term colony formation”. Besides, in [3], the “fMLP-stimulated polarization of differentiated HL-60 neutrophils” value is “efficient inhibition”. Further, the “cleavage/activation of caspase-3 and processing of PARP” value in the data set on caspase-3 was “induced the cleavage/activation”. Also, in data set [4], the “PI3K/PDK1/Akt signaling pathway in HUVEC” value is given as “capable of blocking”. Further, the “effect on HSQC of R86A mutant PH domain” value in data set [5] is on record as “had no effect”.

The values above are taken from patent US20120136033A1, “Small Molecule Antagonists of Phosphatidylinositol-3,4,5-Triphosphate (PIP3) and Uses Thereof” (President and Fellows of Harvard College, priority 2009, published 2012).
